Broadly, the IC50 is the concentration at which inhibition is half-maximal.

SMILES strings stand for the structures. Read-outs that look alike come from different tables or passages of the source. Where only a bound is given, the exact number is not on record here.

This experiment deals with T1, human recombinant mGluR5 receptor (Homo sapiens, UniProt P41594).
T1 construct: expressed in transfected cells; expression induced with doxycycline
Briefly: mGluR5 in vitro functional assay (aequorin cell line, inhibition of glutamate EC80 response). In kind it is cell-based. The note with it: aequorin cell line expressing human mGluR5, reference agonist glutamate at EC80, obtained in duplicate, read-out: IC50. The gist of the method: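 Doxycycline-induced (600 ng/mL, 18 h) aequorin cells loaded with coelenterazine h ≥4 h at room temperature; compound preincubated 3 min before glutamate at EC80. Luminescence recorded, normalized to digitonin or 20 mM ATP wells; % inhibition of EC80 response fitted by sigmoidal nonlinear regression.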

T1 sequence (P41594 21-1212): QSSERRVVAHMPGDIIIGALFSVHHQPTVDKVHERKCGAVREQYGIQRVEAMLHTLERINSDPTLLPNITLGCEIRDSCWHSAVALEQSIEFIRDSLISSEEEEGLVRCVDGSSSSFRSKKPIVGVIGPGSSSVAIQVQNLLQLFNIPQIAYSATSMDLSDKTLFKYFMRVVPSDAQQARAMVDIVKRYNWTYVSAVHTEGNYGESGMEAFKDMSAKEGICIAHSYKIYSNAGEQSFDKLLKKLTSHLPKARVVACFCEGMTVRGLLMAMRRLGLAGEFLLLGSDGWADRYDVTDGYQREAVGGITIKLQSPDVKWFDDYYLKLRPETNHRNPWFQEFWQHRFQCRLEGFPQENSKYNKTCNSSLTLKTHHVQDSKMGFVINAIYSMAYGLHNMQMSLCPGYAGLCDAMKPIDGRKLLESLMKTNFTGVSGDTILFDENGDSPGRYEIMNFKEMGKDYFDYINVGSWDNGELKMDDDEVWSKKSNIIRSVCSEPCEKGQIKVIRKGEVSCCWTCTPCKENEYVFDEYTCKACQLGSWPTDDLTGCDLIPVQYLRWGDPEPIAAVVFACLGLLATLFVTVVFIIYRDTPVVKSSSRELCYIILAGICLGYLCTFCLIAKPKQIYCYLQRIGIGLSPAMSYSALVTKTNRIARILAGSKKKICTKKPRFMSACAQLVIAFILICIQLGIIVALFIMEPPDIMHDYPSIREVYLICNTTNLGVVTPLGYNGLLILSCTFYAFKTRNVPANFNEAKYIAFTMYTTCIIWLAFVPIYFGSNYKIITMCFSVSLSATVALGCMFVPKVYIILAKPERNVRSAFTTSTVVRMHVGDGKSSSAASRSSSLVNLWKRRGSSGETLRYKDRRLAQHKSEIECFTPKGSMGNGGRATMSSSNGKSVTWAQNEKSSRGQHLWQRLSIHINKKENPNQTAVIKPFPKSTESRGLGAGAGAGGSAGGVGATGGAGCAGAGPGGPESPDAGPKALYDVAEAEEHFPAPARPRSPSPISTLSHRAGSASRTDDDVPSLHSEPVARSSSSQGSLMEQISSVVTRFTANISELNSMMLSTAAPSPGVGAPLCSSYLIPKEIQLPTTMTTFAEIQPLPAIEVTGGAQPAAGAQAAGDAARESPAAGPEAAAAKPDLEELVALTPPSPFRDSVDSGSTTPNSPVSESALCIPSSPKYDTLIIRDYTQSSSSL

Regarding `Clc1ccccc1-c1nc2c(o1)CN(c1ccccn1)CC2` [Compound 68, 2-(2-Chlorophenyl)-5-(pyridin-2-yl)-4,5,6,7-tetrahydrooxazolo[5,4-c]pyridine], the IC50 (Table 1) is < 10000 nM.

As for `N#Cc1cccnc1N1CCc2oc(-c3ccccn3)nc2C1` [Compound 28, 2-(2-(Pyridin-2-yl)-6,7-dihydrooxazolo[4,5-c]pyridin-5(4H)-yl)nicotinonitrile], the IC50 (Table 1) was < 1000 nM.

`c1ccc(-c2nc3c(o2)CCN(c2nccs2)C3)nc1` [Compound 55, 2-(Pyridin-2-yl)-5-(thiazol-2-yl)-4,5,6,7-tetrahydrooxazolo[4,5-c]pyridine]: the IC50 (Table 1) was < 1000 nM.

With `Fc1ccc(-c2nc3c(o2)CCN(c2ccccc2Cl)C3)nc1` [Compound 167, 5-(2-Chlorophenyl)-2-(5-fluoropyridin-2-yl)-4,5,6,7-tetrahydrooxazolo[4,5-c]pyridine], where the note is “Table 2”, the IC50 is < 1000 nM.

Take `Fc1ccc([C@H]2CCc3oc(-c4ccccn4)nc3C2)c(Cl)c1` (single isomer, unassigned) [Compound 225]: the IC50 (Table 2) was < 1000 nM.

For the molecule `N#Cc1cc(N2CCCc3nc(-c4ccccn4)oc3C2)cc(C(F)(F)F)c1` [Compound 94, 3-(2-(Pyridin-2-yl)-7,8-dihydro-4H-oxazolo[5,4-c]azepin-5(6H)-yl)-5-(trifluoromethyl)benzonitrile], the IC50 (Table 1) was < 1000 nM.

Consider `Clc1cc(Cl)cc(N2CCCc3oc(-c4ccccn4)nc3C2)c1` [Compound 209, 5-(3,5-Dichlorophenyl)-2-(pyridin-2-yl)-5,6,7,8-tetrahydro-4H-oxazolo[4,5-c]azepine], for which, for the setting “Table 2”, the IC50 is < 1000 nM.

With `N#Cc1cccnc1N1CCn2cc(-c3cccc(Cl)c3)nc2C1` [Compound 108, 2-(2-(3-Chlorophenyl)-5,6-dihydroimidazo[1,2-a]pyrazin-7(8H)-yl)nicotinotrile], the IC50 (Table 1) is < 10000 nM.

Take `Fc1ccc(-c2nc3c(o2)CCN(c2cccc(Cl)c2)C3)nc1` [Compound 125, 5-(3-chlorophenyl)-2-(5-fluoropyridin-2-yl)-4,5,6,7-tetrahydrooxazolo[4,5-c]pyridine]: under “Table 2”, the IC50 was < 1000 nM.

Consider `N#Cc1cc(F)cc(N2CCc3nc(-c4ccccn4)oc3C2)c1` [Compound 4, 3-Fluoro-5-(2-(pyridin-2-yl)-6,7-dihydrooxazolo[5,4-c]pyridin-5(4H)-yl)benzonitrile], for which the half-inhibitory concentration (IC50) (Table 1) is < 1000 nM.

On to `Cc1cccnc1-c1nc2c(o1)CCN(c1cccc(F)c1)C2` [Compound 122, 5-(3-fluorophenyl)-2-(3-methylpyridin-2-yl)-4,5,6,7-tetrahydrooxazolo[4,5-c]pyridine], for which, under “Table 2”, the IC50 is > 10000 nM.

Take `[2H]c1c(F)c([2H])c(N2CCCc3oc(-c4ccccn4)nc3C2)c([2H])c1C#N` [Compound 210, 2,4,6-d3-3-Fluoro-5-(2-(pyridin-2-yl)-7,8-dihydro-4H-oxazolo[4,5-c]azepin-5(6H)-yl)benzonitrile]: for the setting “Table 2”, the IC50 is < 1000 nM.

Consider `N#Cc1cc(F)cc(N2CCc3oc(-c4cncnc4)nc3C2)c1` [Compound 160, 3-Fluoro-5-(2-(pyrimidin-5-yl)-6,7-dihydrooxazolo[4,5-c]pyridin-5(4H)-yl)benzonitrile], for which, for the setting “Table 2”, the IC50 is > 10000 nM.

On to `N#Cc1cc(F)cc(N2CCc3oc(-c4ncco4)nc3C2)c1` [Compound 80, 3-Fluoro-5-(2-(oxazol-2-yl)-6,7-dihydrooxazolo[4,5-c]pyridin-5(4H)-yl)benzonitrile], for which the IC50 (Table 1) is < 10000 nM.

For the molecule `c1ccc(-c2nc3c(o2)CCN(c2cccc4[nH]ccc24)C3)nc1` [Compound 194, 5-(1H-Indol-4-yl)-2-(pyridin-2-yl)-4,5,6,7-tetrahydrooxazolo[4,5-c]pyridine], the IC50 (Table 2) is < 1000 nM.

As for `Fc1cccc(N2CCCc3oc(-c4ccncn4)nc3C2)c1` [Compound 136, 5-(3-fluorophenyl)-2-(pyrimidin-4-yl)-5,6,7,8-tetrahydro-4H-oxazolo[4,5-c]azepine], the IC50 (Table 2) is < 1000 nM.

`Clc1ccccc1C1CCc2oc(-c3ccccn3)nc2C1` (racemic) [Compound 219, 5-(2-Chlorophenyl)-2-(pyridin-2-yl)-4,5,6,7-tetrahydrobenzo[d]oxazole]: the IC50 (Table 2) is < 1000 nM.

Regarding `c1ccc(-c2nc3c(o2)CCN(c2cccnc2)C3)nc1` [Compound 154, 2-(Pyridin-2-yl)-5-(pyridin-3-yl)-4,5,6,7-tetrahydrooxazolo[4,5-c]pyridine], for the setting “Table 2”, the concentration for half-maximal inhibition (IC50) was < 1000 nM.

With `Fc1cccc(N2CCn3nc(-c4ccccn4)nc3C2)c1` [Compound 114, 7-(3-Fluorophenyl)-2-(pyridin-2-yl)-5,6,7,8-tetrahydro-[1,2,4]triazolo[1,5-a]pyrazine], where the note is “Table 1”, the half-inhibitory concentration (IC50) is < 1000 nM.

With `Cc1ccnc(-c2nc3c(o2)CN(c2cccc(C#N)c2)CC3)c1` [Compound 76, 3-(2-(4-Methylpyridin-2-yl)-6,7-dihydrooxazolo[5,4-c]pyridin-5(4H)-yl)benzonitrile], where the note is “Table 1”, the IC50 was < 10000 nM.

For `COc1cc(C#N)cc(N2CCCc3nc(-c4ccccn4)oc3C2)c1` [Compound 91, 3-Methoxy-5-(2-(pyridin-2-yl)-7,8-dihydro-4H-oxazolo[5,4-c]azepin-5(6H)-yl)benzonitrile], the IC50 (Table 1) is < 1000 nM.

Take `c1ccc(-c2nc3c(o2)CCN(c2ccccn2)C3)cc1` [Compound 38, 2-Phenyl-5-(pyridin-2-yl)-4,5,6,7-tetrahydrooxazolo-[4,5-c]pyridine]: the IC50 (Table 1) is < 10000 nM.

Turning to `Clc1cccc(N2CCCc3oc(-c4cnccn4)nc3C2)c1` [Compound 140, 5-(3-chlorophenyl)-2-(pyrazin-2-yl)-5,6,7,8-tetrahydro-4H-oxazolo[4,5-c]azepine], the half-maximal inhibitory concentration (IC50) (Table 2) was < 10000 nM.

As for `N#Cc1ccccc1N1CCc2oc(-c3ccccn3)nc2C1` [Compound 180, 2-(2-(Pyridin-2-yl)-6,7-dihydrooxazolo[4,5-c]pyridin-5(4H)-yl)benzonitrile], the half-maximal inhibitory concentration (IC50) (Table 2) is < 1000 nM.

For `Fc1cccc(N2CCc3oc(-c4ccccn4)nc3C2)c1` [Compound 116, 5-(3-fluorophenyl)-2-(pyridin-2-yl)-4,5,6,7-tetrahydrooxazolo[4,5-c]pyridine], the half-inhibitory concentration (IC50) (Table 2) was < 1000 nM.

`N#Cc1cccc(-c2nc3c(o2)CN(c2ncccc2C#N)CC3)c1` [Compound 66, 2-(2-(3-Cyanophenyl)-6,7-dihydrooxazolo[5,4-c]pyridin-5(4H)-yl)nicotinonitrile]: the IC50 (Table 1) is < 10000 nM.

As to `Cc1nc(N2CCCc3oc(-c4ccccn4)nc3C2)cs1` [Compound 208, 5-(2-Methylthiazol-4-yl)-2-(pyridin-2-yl)-5,6,7,8-tetrahydro-4H-oxazolo[4,5-c]azepine], where the note is “Table 2”, the IC50 was > 10000 nM.

Take `Clc1cccc(N2CCCc3oc(-c4ccncn4)nc3C2)c1` [Compound 137, 5-(3-chlorophenyl)-2-(pyrimidin-4-yl)-5,6,7,8-tetrahydro-4H-oxazolo[4,5-c]azepine]: the IC50 (Table 2) is < 1000 nM.

With `FC(F)(F)c1cccc(N2CCCc3nc(-c4ccccn4)oc3C2)c1` [Compound 95, 2-(Pyridin-2-yl)-5-(3-(trifluoromethyl)phenyl)-5,6,7,8-tetrahydro-4H-oxazolo[5,4-c]azepine], the IC50 (Table 1) was < 10000 nM.

On to `N#Cc1cccnc1N1CCc2nc(-c3ccccc3)oc2C1` [Compound 19, 2-(2-Phenyl-6,7-dihydrooxazolo[5,4-c]pyridin-5(4H)-yl)nicotinonitrile], for which the IC50 (Table 1) was < 10000 nM.

As to `N#Cc1cccc(N2CCc3nc(-c4ccncc4)oc3C2)c1` [Compound 75, 3-(2-(Pyridin-4-yl)-6,7-dihydrooxazolo[5,4-c]pyridin-5(4H)-yl)benzonitrile], the 50% inhibitory concentration (IC50) (Table 1) was < 10000 nM.

In the case of `N#Cc1cncc(N2CCc3nc(-c4ccccn4)oc3C2)c1` [Compound 8, 5-(2-(Pyridin-2-yl)-6,7-dihydrooxazolo[5,4-c]pyridin-5(4H)-yl)nicotinonitrile], the half-maximal inhibitory concentration (IC50) (Table 1) is < 10000 nM.

As to `Cc1cccc(-c2nc3c(o2)CN(c2ncccc2C#N)CC3)c1` [Compound 59, 2-(2-m-Tolyl-6,7-dihydrooxazolo[5,4-c]pyridin-5(4H)-yl)nicotinonitrile], the half-inhibitory concentration (IC50) (Table 1) was < 1000 nM.

Consider `COc1cc(C#N)cc(N2CCCc3oc(-c4ccccn4)nc3C2)c1` [Compound 213, 3-Methoxy-5-(2-(pyridin-2-yl)-7,8-dihydro-4H-oxazolo[4,5-c]azepin-5(6H)-yl)benzonitrile], for which, for the setting “Table 2”, the IC50 was < 1000 nM.

Regarding `Clc1cccc(-c2cn3c(n2)CN(c2cccnc2)CC3)c1` [Compound 106, 2-(3-Chlorophenyl)-7-(pyridin-3-yl)-5,6,7,8-tetrahydroimidazo[1,2-a]pyrazine], for the setting “Table 1”, the IC50 was < 10000 nM.

Regarding `N#Cc1cccnc1N1CCc2nc(-c3ccccc3Cl)oc2C1` [Compound 69, 2-(2-(2-Chlorophenyl)-6,7-dihydrooxazolo[5,4-c]pyridin-5(4H)-yl)nicotinonitrile], under “Table 1”, the IC50 is < 10000 nM.

Consider `Cc1cccc(-c2nc3c(o2)CCN(c2ncccc2C#N)C3)c1` [Compound 61, 2-(2-m-Tolyl-6,7-dihydrooxazolo[4,5-c]pyridin-5(4H)-yl)nicotinonitrile], for which, under “Table 1”, the IC50 was < 1000 nM.

`c1ccc(-c2nc3c(o2)CCN(c2cncnc2)C3)nc1` [Compound 131, 2-(pyridin-2-yl)-5-(pyrimidin-5-yl)-4,5,6,7-tetrahydrooxazolo[4,5-c]pyridine]: the concentration for half-maximal inhibition (IC50) (Table 2) was < 10000 nM.

For `COc1cc(F)cc(N2CCc3oc(-c4ccccn4)nc3C2)c1` [Compound 56, 5-(3-Fluoro-5-methoxyphenyl)-2-(pyridin-2-yl)-4,5,6,7-tetrahydrooxazolo[4,5-c]pyridine], the IC50 (Table 1) is < 1000 nM.

As for `N#Cc1cccc(N2CCc3nc(-c4ccccn4)oc3CC2)c1` [Compound 88, 3-(2-(Pyridin-2-yl)-7,8-dihydro-4H-oxazolo[5,4-d]azepin-6(5H)-yl)benzonitrile], the IC50 (Table 1) was < 1000 nM.

On to `N#Cc1cccnc1N1CCc2nc(-c3ccccn3)oc2C1` [Compound 3, 2-(2-(Pyridin-2-yl)-6,7-dihydrooxazolo[5,4-c]pyridin-5(4H)-yl)nicotinonitrile], for which the half-inhibitory concentration (IC50) (Table 1) was < 1000 nM.
